Assay results taken from PMC6315506 (Viruses, 2018).

Legend:
Details in all cases: 10 µM
HIV-1/H5N1 pseudovirus = assay: organism not typed; type: cell-based, influenza A virus A/Goose/Qinghai/59/05 (H5N1)
HIV-1/LASV pseudovirus = assay: microbe, parasite or virus in culture; type: cell-based
HIV-1/EBOV pseudovirus = test system: HIV-1/EBOV pseudovirus
A549 cells = test system: A549 cells

SMILES | Inhibition HIV/H5N1 (HIV-1/H5N1 pseudovirus) [%] | Inhibition HIV/LASV (HIV-1/LASV pseudovirus) [%] | Inhibition HIV/EBOV (HIV-1/EBOV pseudovirus) [%] | Cell Viability (A549 cells) [%]
Brc1ccc2nc(OCc3cccc4ccccc34)c(-c3ccc(N4CCCC4)cc3)cc2c1 [SYL1686] | 65.78 | 90.35 | 99.92 | 82.03
CN(C)CCc1cccc(-c2cc3cc(Br)ccc3nc2OCc2cccc3ccccc23)c1 [SYL1643] | 72.74 | 83.87 | 99.82 | 85.39
CN(C)C(=O)c1cccc(-c2cc3ccccc3nc2Oc2cccc3ccccc23)c1 [SYL1646] | -23.29 | 82.50 | 99.92 | 83.55
Fc1cccc(COc2nc3ccc(Br)cc3cc2-c2cccc(-c3ncco3)c2)c1 [SYL1650] | -15.72 | 87.63 | 99.92 | 81.60
Brc1ccc2nc(OCc3cccc4ccccc34)c(-c3ccc(CN4CCN(Cc5ccccc5)CC4)cc3)cc2c1 [SYL1697] | -5.87 | 15.89 | 67.57 | 90.86
CN(C)Cc1ccc(-c2cc3cc(Br)ccc3nc2N2CCCCC2)cc1 [SYL1714] | 83.36 | 51.47 | 98.67 | 91.09
COc1nc2ccc(Br)cc2cc1-c1ccc(CN(C)C)cc1 [SYL1689] | 97.51 | 88.23 | 99.94 | 78.79
CN(C)Cc1ccc(-c2cc3cc(Br)ccc3nc2Oc2ccccc2)cc1 [SYL1676] | 36.23 | 19.98 | 71.19 | 89.65
CN(C)Cc1ccc(-c2cc3ccccc3nc2OCc2cccc3ccccc23)cc1 [SYL1701] | 98.51 | 97.96 | 99.94 | 88.01
CN(C)Cc1cccc(-c2cc3cc(Br)ccc3nc2OCc2cccc(F)c2)c1 [SYL1666] | 87.06 | 91.03 | 99.92 | 81.28
COc1ccc(CC(O)(c2ccccc2CN(C)C)c2cc3cc(OC)ccc3nc2OC)cc1 (stereo not shown) [SYL1663] | 88.29 | 89.19 | 99.90 | 89.15
CN(C)CCC(O)(c1cccc(F)c1)C1c2ccccc2Sc2ccccc21 (stereo not shown) [SYL1634] | 83.95 | 83.87 | 99.53 | 81.21
CN(C)Cc1ccc(-c2cc3cc(Br)ccc3nc2OCc2c(F)cccc2F)cc1 [SYL1693] | 97.66 | 99.04 | 99.59 | 3.19
Brc1ccc2nc(OCc3cccc4ccccc34)c(-c3ccc(CN4CCOCC4)cc3)cc2c1 [SYL1708] | 18.60 | 82.96 | 98.58 | 80.29
CN(C)Cc1cccc(-c2cc3cc(Br)ccc3nc2OCCc2cccc3ccccc23)c1 [SYL1664] | 50.44 | 86.44 | 99.90 | 84.59
COc1nc2ccc(Br)cc2cc1C(c1ccccc1)N(CCN(C)C)c1cccc2ccccc12 (stereo not shown) [SYL1623] | 105.28 | 15.39 | 97.68 | 87.19
COc1nc2ccc(Br)cc2cc1C(c1ccccc1)C1(OC(=O)c2ccccc2)CCN(C)CC1 (stereo not shown) [SYL1645] | 45.37 | 86.68 | 99.92 | 82.47
CN(C)Cc1ccccc1C(O)c1cc2cc(Br)ccc2nc1OCc1cccc2ccccc12 (stereo not shown) [SYL1652] | 98.16 | 97.16 | 99.94 | 61.30
CN(C)Cc1cccc(-c2cc3cc(Br)ccc3nc2Nc2cccc3ccccc23)c1 [SYL1656] | 49.96 | 51.43 | 79.70 | 77.79
CN(C)Cc1cccc(-c2cc3cc(Br)ccc3nc2Oc2ccncc2)c1 [SYL1648] | 37.82 | 89.27 | 99.91 | 84.21
COc1nc2ccc(Br)cc2cc1C(Nc1ccccc1OCCN(C)C)c1ccccc1 (stereo not shown) [SYL1622] | 96.99 | 83.38 | 99.12 | 77.49
CN(C)Cc1ccc(-c2cc3cc(Br)ccc3nc2Oc2ccc(OCc3ccccc3)cc2)cc1 [SYL1698] | 97.44 | 98.80 | 99.64 | 107.16

SMILES | Inhibition HIV/H5N1 (HIV-1/H5N1 pseudovirus) [%] | Inhibition HIV/LASV (HIV-1/LASV pseudovirus) [%] | Inhibition HIV/EBOV (HIV-1/EBOV pseudovirus) [%] | Cell Viability (A549 cells) [%]
CN(C)Cc1ccc(-c2cc3cc(Br)ccc3nc2OCc2cccc3ccccc23)c(F)c1 [SYL1682] | 78.74 | 94.69 | 99.91 | 84.09
CN(C)Cc1ccc(-c2cc3cc(Br)ccc3nc2OCc2cccc3ccccc23)cc1 [SYL1665] | 84.24 | 88.72 | 99.92 | 82.87
C[N+](C)(C)Cc1ccc(-c2cc3cc(Br)ccc3nc2OCc2cccc3ccccc23)cc1.[I-] [SYL1685] | 65.25 | 93.29 | 99.90 | 103.42
Fc1cccc(COc2nc3ccc(Br)cc3cc2-c2cccc(Oc3ccccn3)c2)c1 [SYL1647] | 44.09 | 89.08 | 99.94 | 82.66
COc1nc2ccccc2cc1C(Nc1ccccc1NCCN(C)C)c1ccccc1 (stereo not shown) [SYL1621] | 97.96 | 99.14 | 99.90 | 52.36
COc1nc2ccccc2cc1C(Nc1ccccc1N1CCN(C)C1=O)c1ccccc1 (stereo not shown) [SYL1662] | 68.52 | 89.05 | 99.56 | 89.06
COc1nc2ccccc2cc1C(c1ccccc1)n1c(=O)n(CCN(C)C)c2ccccc21 (stereo not shown) [SYL1624] | 53.54 | 85.88 | 99.82 | 86.63
CN(C)Cc1ccc(-c2cc3cc(Br)ccc3nc2SCc2ccccc2)cc1 [SYL1699] | 94.56 | 93.73 | 99.94 | 105.32
COc1ccc(COc2nc3ccc(Br)cc3cc2-c2ccc(CN(C)C)cc2)cc1 [SYL1706] | 54.58 | 87.40 | 99.20 | 82.99
COc1nc2ccc(Br)cc2cc1C(c1ccccc1)n1cc(CN(C)C)c2ccccc21 (stereo not shown) [SYL1629] | 29.75 | 88.22 | 99.91 | 90.62
CN(C)C(=O)Cc1ccc(-c2cc3cc(Br)ccc3nc2OCc2cccc3ccccc23)cc1 [SYL1677] | 15.95 | 29.51 | 90.04 | 58.71
CN(C)c1ncc2cc(-c3cc4cc(Br)ccc4nc3OCc3cccc4ccccc34)ccc2n1 [SYL1692] | -2.23 | 11.86 | 48.65 | 87.98
CNCCc1ccc(-c2cc3cc(Br)ccc3nc2OCc2cccc3ccccc23)cc1 [SYL1672] | 98.01 | 99.22 | 99.85 | 2.06
COc1nc2ccc(Br)cc2cc1C(c1ccccc1)N1CCN(C)c2ccccc21 (stereo not shown) [SYL1628] | -5.51 | 86.50 | 99.91 | 86.44
COc1cc(CN(C)C)ccc1-c1cc2cc(Br)ccc2nc1OCc1cccc2ccccc12 [SYL1716] | 98.20 | 99.34 | 99.70 | 1.73
CNCCNCc1ccc(-c2cc3cc(Br)ccc3nc2OCc2cccc3ccccc23)cc1 [SYL1679] | 96.95 | 97.63 | 99.70 | 117.07
CCN(CC)CCc1ccc(-c2cc3cc(Br)ccc3nc2OCc2cccc3ccccc23)cc1 [SYL1671] | 92.36 | 89.90 | 99.87 | 88.97
COc1nc2ccccc2cc1C(O)(Cc1cccc(F)c1)c1ccccc1 (stereo not shown) [SYL1651] | 30.01 | 89.23 | 99.95 | 79.56
COc1ccccc1COc1nc2ccc(Br)cc2cc1-c1ccc(CN(C)C)cc1 [SYL1705] | 59.98 | 88.92 | 99.76 | 86.34
CN(C)Cc1cccc(-c2cc3cc(Br)ccc3nc2OCc2cccc3ccccc23)c1 [SYL1638] | 98.27 | 99.18 | 99.91 | 18.62
COc1nc2ccc(Br)cc2cc1C(O)(Cc1cccc(F)c1)c1ccccc1CN(C)C (stereo not shown) [SYL1649] | 79.45 | 90.46 | 99.90 | 81.62
